Values quoted from earlier work as cited in US20200222451A1, “Composition” (Optibiotix Limited, priority 2017, published 2020).

Details: compared to placebo

Q: Which results are given for chromium picolinate?
A: fat cravings (P<0.0001): reduces; food intake (P<0.0001): reduces; hunger levels (P<0.05): reduces; body weight (P<0.08): decrease
